Measured values: ChEMBL document CHEMBL2331395, “Natural product coumarins that inhibit human carbonic anhydrases” (Bioorg Med Chem, 2013)

Key:
Carbonic anhydrase 9 = Carbonic anhydrase 9 (Homo sapiens, UniProt Q16790); assay: Inhibition of human carbonic anhydrase 9 preincubated for 6 hrs by CO2 hydration stopped-flow assay
Carbonic anhydrase 2 = Carbonic anhydrase 2 (Homo sapiens, UniProt P00918); assay: Inhibition of human carbonic anhydrase 2 preincubated for 6 hrs by CO2 hydration stopped-flow assay
Carbonic anhydrase 13 = Carbonic anhydrase 13 (Homo sapiens, UniProt Q8N1Q1); assay: Inhibition of human carbonic anhydrase 13 preincubated for 6 hrs by CO2 hydration stopped-flow assay
Carbonic anhydrase 7 = Carbonic anhydrase 7 (Homo sapiens, UniProt P43166); assay: Inhibition of human carbonic anhydrase 7 preincubated for 6 hrs by CO2 hydration stopped-flow assay
Carbonic anhydrase 1 = Carbonic anhydrase 1 (Homo sapiens, UniProt P00915); assay: Inhibition of human carbonic anhydrase 1 preincubated for 6 hrs by CO2 hydration stopped-flow assay
Carbonic anhydrase 12 = Carbonic anhydrase 12 (Homo sapiens, UniProt O43570); assay: Inhibition of human carbonic anhydrase 12 preincubated for 6 hrs by CO2 hydration stopped-flow assay
Carbonic anhydrase 12, sequence (O43570 whole entry): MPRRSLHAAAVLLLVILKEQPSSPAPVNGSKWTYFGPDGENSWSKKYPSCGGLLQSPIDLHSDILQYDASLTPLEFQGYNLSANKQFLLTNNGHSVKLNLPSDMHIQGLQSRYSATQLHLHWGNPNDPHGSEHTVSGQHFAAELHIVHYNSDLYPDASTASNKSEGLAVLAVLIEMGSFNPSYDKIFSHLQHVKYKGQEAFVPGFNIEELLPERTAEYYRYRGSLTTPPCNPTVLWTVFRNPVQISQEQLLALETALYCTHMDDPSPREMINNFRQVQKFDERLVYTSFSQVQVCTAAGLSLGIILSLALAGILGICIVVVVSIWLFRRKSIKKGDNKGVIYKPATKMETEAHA

Carbonic anhydrase 13, sequence (Q8N1Q1 whole entry): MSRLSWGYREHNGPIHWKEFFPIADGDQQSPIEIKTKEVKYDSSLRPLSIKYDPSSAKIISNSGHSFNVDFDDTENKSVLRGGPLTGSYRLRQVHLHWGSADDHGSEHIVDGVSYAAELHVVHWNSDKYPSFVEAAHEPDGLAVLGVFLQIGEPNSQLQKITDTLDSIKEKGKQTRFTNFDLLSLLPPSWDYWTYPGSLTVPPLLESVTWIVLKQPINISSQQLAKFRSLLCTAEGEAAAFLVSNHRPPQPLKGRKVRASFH
Carbonic anhydrase 1, sequence (P00915 whole entry): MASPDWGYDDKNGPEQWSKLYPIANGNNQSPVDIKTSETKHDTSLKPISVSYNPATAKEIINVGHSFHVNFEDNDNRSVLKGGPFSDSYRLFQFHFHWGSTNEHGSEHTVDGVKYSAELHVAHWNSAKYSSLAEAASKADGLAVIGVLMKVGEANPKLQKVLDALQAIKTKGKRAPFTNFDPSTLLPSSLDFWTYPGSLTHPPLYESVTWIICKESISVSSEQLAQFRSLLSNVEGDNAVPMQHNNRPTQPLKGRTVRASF
Carbonic anhydrase 7, sequence (P43166 whole entry): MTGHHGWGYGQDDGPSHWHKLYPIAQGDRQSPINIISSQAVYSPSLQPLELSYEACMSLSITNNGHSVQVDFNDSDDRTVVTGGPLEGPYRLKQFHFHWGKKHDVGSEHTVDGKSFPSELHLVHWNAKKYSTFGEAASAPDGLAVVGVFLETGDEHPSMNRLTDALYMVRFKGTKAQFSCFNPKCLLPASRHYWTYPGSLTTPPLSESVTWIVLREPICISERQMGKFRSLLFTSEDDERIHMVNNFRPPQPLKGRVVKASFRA

SMILES | Ki (Carbonic anhydrase 9) | Ki (Carbonic anhydrase 2) | Ki (Carbonic anhydrase 13) | Ki (Carbonic anhydrase 7) | Ki (Carbonic anhydrase 1) | Ki (Carbonic anhydrase 12)
CC(CCOc1ccc2ccc(=O)oc2c1)C1=CC(=O)C(C)(C)O1 (centres undefined) | 0.89 µM | 63.4 µM | – | – | – | –
C/C(=C\COc1ccc2ccc(=O)oc2c1)CCC(=O)C(C)(C)O | 4.03 µM | > 100 µM | – | – | – | –
COc1c(O)ccc2ccc(=O)oc12 | 0.85 µM | > 100 µM | – | – | – | –
C=C(C)/C=C/c1c(OC)c2c(c3ccc(=O)oc13)OC(C)(C)C=C2 | 0.62 µM | > 100 µM | – | – | – | –
COc1c2c(c(OC)c3oc(=O)ccc13)OC(C)(C)C=C2 | 0.86 µM | 49.3 µM | > 100 µM | – | – | –
COc1cc2ccc(=O)oc2c(O)c1OC | 0.85 µM | > 100 µM | – | – | – | –
C=C(C)C(COC(=O)c1cccnc1)c1c(OC)ccc2ccc(=O)oc12 (centres undefined) | 0.67 µM | > 100 µM | – | > 100 µM | – | –
C/C(=C\Cc1cc2ccc(=O)oc2cc1O)CO | 9.75 µM | 78.9 µM | – | – | – | –
COc1cc2c(=O)oc3c(OC)c(OC)cc4c(=O)oc(c1O)c2c34 | 17.4 µM | > 100 µM | – | – | – | –
COc1ccc(-c2c3n(c4c(=O)oc5cc(O)c(OC)cc5c24)CCc2c-3cc(OC)c(OC)c2O)cc1O | 3.22 µM | > 100 µM | – | – | – | –
COc1cc(-c2c3c4cc(OC)c(O)cc4oc(=O)c3n3ccc4c(OC)c(OC)c(OC)cc4c23)ccc1O | 6.33 µM | > 100 µM | – | – | – | –
COc1ccc(-c2c3n(c4c(=O)oc5cc(OC)c(O)cc5c24)CCc2cc(OS(=O)(=O)O)c(OC)cc2-3)cc1O | 3.27 µM | > 100 µM | – | – | – | –
COc1cc(OC)c2ccc(=O)oc2c1OC | 0.76 µM | 9.65 µM | – | – | – | –
CCCc1cc(=O)oc2c3c(c4c(c12)OC(C)(C)C=C4)O[C@H](C)[C@@H](C)[C@H]3O [(+)-CALANOLIDE B] | – | 50.7 µM | 21 µM | 8.87 µM | 9.31 µM | 0.81 µM
COc1cc2oc(=O)ccc2c2c1C=CC(C)(C)O2 [ALLOXANTHOXYLETIN] | 3.5 µM | > 100 µM | – | – | – | –
COc1c2c(c3ccc(=O)oc3c1/C=C/C(C)(C)O)OC(C)(C)C=C2 [AVICENNOL] | 0.78 µM | > 100 µM | 29.3 µM | 8.98 µM | 8.46 µM | 0.77 µM
O=c1ccc2ccccc2o1 [COUMARIN] | – | – | > 1000 µM | > 1000 µM | – | –
O=c1oc2c(O)c(O)cc3c(=O)oc4c(O)c(O)cc1c4c23 [ELLAGIC ACID] | 79.8 µM | – | 4.24 µM | 8.79 µM | 68.2 µM | 8.15 µM
COc1cc2ccc(=O)oc2c(OC)c1OC [FRAXIDIN METHYL ETHER] | 6.58 µM | > 100 µM | 4.24 µM | 9.28 µM | 0.0097 µM | 18.2 µM
COc1cc2ccc(=O)oc2c(O[C@@H]2O[C@H](CO)[C@@H](O)[C@H](O)[C@H]2O)c1O [FRAXINE] | 0.37 µM | > 100 µM | 9.8 µM | 3.87 µM | 5.04 µM | 7.45 µM
C/C(=C\COc1ccc2ccc(=O)oc2c1)C1=CC(=O)C(C)(C)O1 [GEIPARVARIN] | 0.6 µM | > 100 µM | 9.62 µM | 7.82 µM | 9.75 µM | 0.83 µM
COc1cc2oc(=O)ccc2cc1O [ISOSCOPOLETIN] | 7.37 µM | > 100 µM | 5.27 µM | 23.8 µM | 14 µM | 4.14 µM
COc1ccc2ccc(=O)oc2c1C(C=O)=C(C)C [MURRALONGIN] | 8.12 µM | > 100 µM | – | – | – | –
COc1cc2ccc(=O)oc2cc1O [SCOPOLETIN] | 0.96 µM | > 100 µM | 17.8 µM | 8.71 µM | 10.6 µM | 4.05 µM
COc1cc2ccc(=O)oc2cc1O[C@@H]1O[C@H](CO)[C@@H](O)[C@H](O)[C@H]1O [SCOPOLIN] | 8.72 µM | > 100 µM | – | – | – | –
COc1c2c(cc3oc(=O)ccc13)OC(C)(C)C=C2 [XANTHOXYLETIN] | 0.74 µM | > 100 µM | 3.15 µM | 6.27 µM | 7.71 µM | 0.96 µM
CC1(C)C=Cc2cc3ccc(=O)oc3cc2O1 [XANTHYLETIN] | 7.51 µM | > 100 µM | 8.36 µM | 9.18 µM | 21.5 µM | 25.7 µM
